Test results as given in ChEMBL document CHEMBL1147871, “Synthesis and antioxidant activity of new homocarnosine beta-cyclodextrin conjugates” (Eur J Med Chem, 2007).

Tests used:
Format in all cases: functional
[1] = Effect on copper-induced human LDL peroxidation assessed as inhibition of malonaldehyde production at 100 uM after 4 hrs; parameters: scale not given: the % may be the effect or the level left
[2] = Protective effect on copper-induced LDL oxidation at 1:5 copper to drug ratio relative to 40 uM copper
[3] = Effect on copper-induced human LDL peroxidation assessed as inhibition of malonaldehyde production at 5 uM after 4 hrs; parameters: scale not given: the % may be the effect or the level left
[4] = Effect on copper-induced human LDL peroxidation assessed as inhibition of malonaldehyde production at 10 uM after 4 hrs; parameters: scale not given: the % may be the effect or the level left
[5] = Effect on copper-induced human LDL peroxidation assessed as inhibition of malonaldehyde production at 200 uM after 4 hrs; parameters: scale not given: the % may be the effect or the level left
[6] = Protective effect on copper-induced LDL oxidation at 1:2.5 copper to drug ratio relative to 40 uM copper
[7] = Effect on copper-induced human LDL peroxidation assessed as inhibition of malonaldehyde production at 50 uM after 4 hrs; parameters: scale not given: the % may be the effect or the level left
[8] = Protective effect on copper-induced LDL oxidation at 2:1 copper to drug ratio relative to 40 uM copper
[9] = Protective effect on copper-induced LDL oxidation at 8:1 copper to drug ratio relative to 40 uM copper
[10] = Protective effect on copper-induced LDL oxidation at 4:1 copper to drug ratio relative to 40 uM copper
[11] = Protective effect on copper-induced LDL oxidation at 20:1 copper to drug ratio relative to 40 uM copper
[12] = Effect on copper-induced human LDL peroxidation assessed as inhibition of malonaldehyde production at 20 uM after 4 hrs; parameters: scale not given: the % may be the effect or the level left
[13] = Effect on copper-induced human LDL peroxidation assessed as inhibition of malonaldehyde production at 2 uM after 4 hrs; parameters: scale not given: the % may be the effect or the level left
[14] = Protective effect on copper-induced LDL oxidation at 1:1.25 copper to drug ratio relative to 40 uM copper

SMILES	Activity [1] [%]	Activity [2] [%]	Activity [3] [%]	Activity [4] [%]	Activity [5] [%]	Activity [6] [%]	Activity [7] [%]	Activity [8] [%]	Activity [9] [%]	Activity [10] [%]	Activity [11] [%]	Activity [12] [%]	Activity [13] [%]	Activity [14] [%]
NCCC(=O)N[C@@H](Cc1c[nH]cn1)C(=O)O	15.1	22	0.93	1.38	22.5	15	9.13	3	1	1	0	2.72	0.28	9
OC[C@H]1O[C@@H]2O[C@H]3[C@H](O)[C@@H](O)[C@@H](O[C@H]4[C@H](O)[C@@H](O)[C@@H](O[C@H]5[C@H](O)[C@@H](O)[C@@H](O[C@H]6[C@H](O)[C@@H](O)[C@@H](O[C@H]7[C@H](O)[C@@H](O)[C@@H](O[C@H]8[C@H](O)[C@@H](O)[C@@H](O[C@H]1[C@H](O)[C@H]2O)O[C@@H]8CO)O[C@@H]7CO)O[C@@H]6CO)O[C@@H]5CO)O[C@@H]4CO)O[C@@H]3CO	6.94	–	0.38	0.65	10.7	–	3.87	–	–	–	–	1.26	0.11	–
NCCCC(=O)N[C@@H](Cc1cnc[nH]1)C(=O)O	12.1	18	1.02	1.86	17.6	12	8.28	3	1	2	0	2.5	0.31	8
